Target: T1, LjG10H (geraniol 10-hydroxylase) (Lonicera japonica, UniProt U5NH25)
T1 construct: pET32a, N-terminal TRX/His tag kept (band about 72 kDa), E. coli BL21, Ni column
Test: HPLC detection of 10-hydroxygeraniol formed by purified recombinant protein
Type: biochemical
Details: 2.5 mmol/L geraniol, 1 mmol/L NADPH with glucose-6-phosphate / G6PDH, FAD, FMN, EDTA, DTT, potassium phosphate pH 7.6, 30 °C, 3 h; no P450 reductase mentioned

T1 sequence (U5NH25 entry or part of it): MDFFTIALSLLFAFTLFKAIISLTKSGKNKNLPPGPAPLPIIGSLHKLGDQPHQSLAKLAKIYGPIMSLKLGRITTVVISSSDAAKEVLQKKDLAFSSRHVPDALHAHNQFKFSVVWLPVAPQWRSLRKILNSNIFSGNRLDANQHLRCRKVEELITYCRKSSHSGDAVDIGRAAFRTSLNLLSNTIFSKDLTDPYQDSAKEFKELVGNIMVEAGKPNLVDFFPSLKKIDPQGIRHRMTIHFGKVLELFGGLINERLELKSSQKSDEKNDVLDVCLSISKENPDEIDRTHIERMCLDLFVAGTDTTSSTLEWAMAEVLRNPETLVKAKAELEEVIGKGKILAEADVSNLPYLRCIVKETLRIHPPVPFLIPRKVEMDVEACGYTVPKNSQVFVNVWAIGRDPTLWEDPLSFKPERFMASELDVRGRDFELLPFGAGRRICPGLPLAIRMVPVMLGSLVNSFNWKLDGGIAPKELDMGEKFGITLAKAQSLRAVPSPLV

SMILES: CC(C)=CCC/C(C)=C/CO [geraniol]
- HPLC detection of 10-hydroxygeraniol formed by purified recombinant protein: LjG10H exhibits catalytic activity in the conversion of geraniol to 10-hydroxygeraniol in vitro

Source: paper PMC11737341, “Cloning and functional verification of Geraniol-10-Hydroxylase gene in Lonicera japonica” (PeerJ, 2025)
